Test results: patent publication US11518740B2, “Pleuromutilin (phenylthio)acetic acid ester with anti-drug resistant bacteria activity and a method of preparing the same” (SHAANXI UNIVERSITY OF SCIENCE AND TECHNOLOGY, priority 2021, dated 2022)

Legend:
Format in all cases: cell-based
[1] = system: multi-resistant Staphylococcus aureus 222; test: Paper diffusion method drug sensitivity test, MRSA-222; conditions: for inhibitory effect (in words): multi-drug resistant Staphylococcus aureus 222, summary of FIGS. 1-3 and Table 1; for Zone of inhibition: strain MRSA-222, drug sensitive paper 30 μg/tablet, 37° C., 24 h
Method: (§1) The antimicrobial efficacy was determined by a paper diffusion method drug sensitivity test.
(§2) Experimental strains: multi-resistant Staphylococcus aureus 171, multi-resistant Staphylococcus aureus 222, multi-resistant Staphylococcus aureus 596. The experimental strains were identified by Huashan Hospital Affiliated to Fudan University (Institute of Antibiotic of Fudan University).
(§3) Drug sensitive paper: The drug sensitive paper is a special drug sensitive paper with a diameter of 6.35 mm and a water absorption of 0.02 mL. The control drug was vancomycin (30 μg/tablet); the test drugs were pleuromutilin (phenylithio)acetic acid ester (30 μg/tablet).
(§4) Reagents: LB agar medium, LA broth medium, dichloromethane.
(§5) The experimental strains were inoculated in non-selective medium and placed in air at 37° C. for 24 h. Pick a single colony that grows well and inoculate it into broth medium, incubate at 35° C.±2° C. for 6 hours, and use LA broth medium to calibrate the concentration of the bacterial solution to 0.5 Mie turbidimetric tube (1.5×10^8 CFU/mL). A bacterial suspension is obtained.
as §5, with “([…]” for “(1.5×10^8”
(§6) LB dry powder was weighed, sterilized at 103.4 Kpa, 121.3° C. high-pressure steam for 15 min, and then placed it in a 40° C.-50° C. water bath. A sterile empty plate (inner diameter 9 cm) was placed on the surface of the ultra-clean table water table, and […] to the plate. The thickness of each plate was 3 mm to 4 mm. After the plate was cooled at room temperature, it was stored in the refrigerator at 2° C.-8° C. A sterile cotton swab was used to dip the bacterial solution and to evenly coat the surface of the LB plate 3 times. After inoculation of the bacterial suspension, the LB plate was dried at room temperature for 3 min to 5 min. Sterile forceps were used to closely attach the antibacterial drug paper to the dish. The dish was put upside down and placed in a 37° C. incubator for 24 h. The results were observed by measuring the diameter. Taking 0.5% DMSO solution as a negative control, the antibacterial activity is expressed by the diameter of the inhibition zone. The inhibition zone≥17 mm, sensitive; the inhibition zone of 15 mm-16 mm, intermediary; the inhibition zone≤14 mm, drug resistance.

[2] = system: multi-resistant Staphylococcus aureus 596; test: Paper diffusion method drug sensitivity test, MRSA-596; conditions: for inhibitory effect (in words): multi-drug resistant Staphylococcus aureus 596, summary of FIGS. 1-3 and Table 1; for Zone of inhibition: strain MRSA-596, drug sensitive paper 30 μg/tablet, 37° C., 24 h
Method: as §1, §2, §3, §4, §5
as §5, with “([…]” for “(1.5×10^8”
as §6

[3] = system: multi-resistant Staphylococcus aureus 171; test: Paper diffusion method drug sensitivity test, MRSA-171; conditions: for inhibitory effect (in words): multi-drug resistant Staphylococcus aureus 171, summary of FIGS. 1-3 and Table 1; for Zone of inhibition: strain MRSA-171, drug sensitive paper 30 μg/tablet, 37° C., 24 h
Method: as §1, §2, §3, §4, §5
as §5, with “([…]” for “(1.5×10^8”
as §6

Structure (SMILES): C=C[C@]1(C)CC(OC(=O)COC(=O)CSc2ccccc2)[C@]2(C)[C@H](C)CC[C@]3(CCC(=O)[C@H]32)[C@@H](C)[C@@H]1O (some centres unmarked)
- inhibitory effect (in words) [1]: strong inhibitory effects
- Zone of inhibition [1]: 15 mm
- inhibitory effect (in words) [2]: strong inhibitory effects
- Zone of inhibition [2]: 23 mm
- inhibitory effect (in words) [3]: strong inhibitory effects

Structure (SMILES): O=C(O)CSc1ccccc1 [(Phenylithio)acetic acid]
- inhibitory effect (in words) [1]: no inhibitory effect
- Zone of inhibition [1]: 0 mm
- inhibitory effect (in words) [2]: no inhibitory effect
- Zone of inhibition [2]: 0 mm
- inhibitory effect (in words) [3]: no inhibitory effect
- Zone of inhibition [3]: 0 mm

Structure (SMILES): C=C[C@]1(C)C[C@@H](OC(=O)CO)[C@]2(C)[C@H](C)CC[C@]3(CCC(=O)[C@H]32)[C@@H](C)[C@@H]1O [Pleuromutilin]
- inhibitory effect (in words) [1]: no inhibitory effect
- Zone of inhibition [1]: 0 mm
- inhibitory effect (in words) [2]: no inhibitory effect
- Zone of inhibition [2]: 0 mm
- inhibitory effect (in words) [3]: no inhibitory effect
- Zone of inhibition [3]: 0 mm

Structure (SMILES): CN[C@H](CC(C)C)C(=O)N[C@H]1C(=O)N[C@@H](CC(N)=O)C(=O)N[C@H]2C(=O)N[C@H]3C(=O)N[C@H](C(=O)N[C@H](C(=O)O)c4cc(O)cc(O)c4-c4cc3ccc4O)[C@H](O)c3ccc(c(Cl)c3)Oc3cc2cc(c3O[C@@H]2O[C@H](CO)[C@@H](O)[C@H](O)[C@H]2O[C@H]2C[C@](C)(N)[C@H](O)[C@H](C)O2)Oc2ccc(cc2Cl)[C@H]1O [Vancomycin]
- Zone of inhibition [1]: 18 mm
- Zone of inhibition [2]: 21 mm
- Zone of inhibition [3]: 17 mm
